Where two headings read alike, the source gives them in different places. Marks after values point to notes of the source that are not given here.
Experiment: Example 5: 4-CNAB plasma pharmacokinetics, single oral doses, healthy male volunteers
Type: in vivo, human
Conditions: for MRT inf: read-out: 4-CNAB MRT(0-inf); for Vd/F: read-out: 4-CNAB Vd/F
Protocol: A single center, double-blind, randomized placebo-controlled study undertaken in healthy human subjects in order to assess the safety and tolerability of escalating single oral doses of 4-CNAB capsules and insulin/4-CNAB capsules.
Within each treatment period in each group, eight subjects were planned to receive active treatment and two subjects to receive placebo. In Group 1, there were four escalating single doses of 4-CNAB (400, 800, 1400 and 2000 mg) and each subject received either all four of these escalating doses or three escalating single doses and one dose of placebo. […] In Group 3 there were three escalating oral doses of Insulin/4-CNAB (100 Units/300 mg, 100 Units/450 mg and 150 Units/100 mg) and one SC dose of 150 Units of insulin. Each subject received either all four of these treatments or three of these treatments and one placebo treatment. For all groups, there was a washout period of at least 72 hours between treatment periods.
The concentration of 4-CNAB in plasma was determined using a combination of liquid chromatography and Mass spectrometry assay known as LC-MS/MS. The method involves protein precipitation followed by separation on liquid chromatography using a Hypersil BDS column and a mobile phase consisting of methanol and acetate buffer. The eluting peaks were quantified by MS/MS. The equipment used for the determination of 4-CNAB in plasma comprises of an Agilent 1100 modular HPLC system with a Micromass Quattro Micro MS/MS detector. HPLC and AR grade chemicals and reagents were used throughout the study.
On the basis of plasma concentrations of 4-CNAB and insulin, PK analysis was performed using non-compartmental PK methods as implemented in WinNonlin™ Professional version 3.2. The profiles for insulin and C-peptide corrected insulin were evaluated up to 6 hours as food was given 6 hours following insulin treatment. The following parameters were derived for 4-CNAB: Cmax, tmax, AUC(0-t), AUC(0-inf), AUC% Extrap, Kel, t1/2, CL/F, Vd/F, MRT(0-t), MRT(0-inf) and Frel. The following parameters were derived for insulin and C-peptide corrected insulin: Cmax, tmax, AUC(0-2), AUC(0-6), AUC(0-t) and concentrations (C^b) and corresponding time (t^b) immediately prior to intervention for hypoglycemia.

[1] = male, human, plasma, oral, 400 mg, Group/Treatment 1/1, 4-CNAB dose 400, alone, unaudited data
[2] = male, human, plasma, oral, 800 mg, Group/Treatment 1/2, 4-CNAB dose 800, alone, unaudited data
[3] = male, human, plasma, oral, 1400 mg, Group/Treatment 1/3, 4-CNAB dose 1400, alone, unaudited data
[4] = male, human, plasma, oral, 2000 mg, Group/Treatment 1/4, 4-CNAB dose 2000, alone, unaudited data
[5] = male, human, plasma, oral, Group/Treatment 2/2, 4-CNAB dose 200, with insulin, unaudited data
[6] = male, human, plasma, oral, Group/Treatment 2/3, 4-CNAB dose 600, with insulin, unaudited data
[7] = male, human, plasma, oral, Group/Treatment 3/1, 4-CNAB dose 300, with insulin, unaudited data
[8] = male, human, plasma, oral, Group/Treatment 3/2, 4-CNAB dose 450, with insulin, unaudited data
[9] = male, human, plasma, oral, Group/Treatment 3/3, 4-CNAB dose 100, with insulin, unaudited data
[10] = male, human, plasma, po, 400 mg, 4-CNAB alone 400 mg oral
[11] = male, human, plasma, po, 800 mg, 4-CNAB alone 800 mg oral
[12] = male, human, plasma, po, 1400 mg, 4-CNAB alone 1400 mg oral

O=C(O)CCCNC(=O)c1ccc(Cl)cc1O [4-CNAB, 4-[(4-chloro, 2-hydroxybenzoyl)amino]butanoic acid]
4-CNAB Cl/F (4-CNAB alone 400 mg oral): 294 ± 122 mL/min
4-CNAB Kel (4-CNAB alone 400 mg oral): 0.11 ± 0.78 h⁻¹
4-CNAB Cl/F (4-CNAB alone 800 mg oral): 290 ± 88^b mL/min
4-CNAB Kel (4-CNAB alone 800 mg oral): 0.12 ± 0.04 h⁻¹
4-CNAB Cl/F (4-CNAB alone 1400 mg oral): 160 ± 38 mL/min
4-CNAB Kel (4-CNAB alone 1400 mg oral): 0.18 ± 0.14 h⁻¹
4-CNAB Cl/F (4-CNAB alone 2000 mg oral): 178 ± 32^a mL/min
4-CNAB Kel (4-CNAB alone 2000 mg oral): 0.06 ± 0.03 h⁻¹
4-CNAB median time of maximum concentration (4-CNAB alone and combined Insulin/4-CNAB treatment): around 0.6 hours
AUC [1]: 22400 ng·h/mL
Cmax [1]: 22300 ng/mL
Tmax (male, human, plasma, oral, 400 mg, Group/Treatment 1/1, 4-CNAB dose 400, alone, unaudited data, read-out: 4-CNAB tmax (range)): 30 min
AUC [2]: 42700 ng·h/mL
Cmax [2]: 32700 ng/mL
Tmax (male, human, plasma, oral, 800 mg, Group/Treatment 1/2, 4-CNAB dose 800, alone, unaudited data, read-out: 4-CNAB tmax (range)): 30 min
AUC [3]: 144000 ng·h/mL
Cmax [3]: 97500 ng/mL
Tmax (male, human, plasma, oral, 1400 mg, Group/Treatment 1/3, 4-CNAB dose 1400, alone, unaudited data, read-out: 4-CNAB tmax (range)): 30 min
AUC [4]: 213000 ng·h/mL
Cmax [4]: 122000 ng/mL
Tmax (male, human, plasma, oral, 2000 mg, Group/Treatment 1/4, 4-CNAB dose 2000, alone, unaudited data, read-out: 4-CNAB tmax (range)): 45 min
half-life (male, human, plasma, oral, 4-CNAB alone, read-out: 4-CNAB mean elimination half-life, range across doses): 354 to 918 min
AUC [5]: 10000 ng·h/mL
Cmax [5]: 9160 ng/mL
Tmax (male, human, plasma, oral, Group/Treatment 2/2, 4-CNAB dose 200, with insulin, unaudited data, read-out: 4-CNAB tmax (range)): 30 min
AUC [6]: 36700 ng·h/mL
Cmax [6]: 33200 ng/mL
Tmax (male, human, plasma, oral, Group/Treatment 2/3, 4-CNAB dose 600, with insulin, unaudited data, read-out: 4-CNAB tmax (range)): 30 min
AUC [7]: 8740 ng·h/mL
Cmax [7]: 8660 ng/mL
Tmax (male, human, plasma, oral, Group/Treatment 3/1, 4-CNAB dose 300, with insulin, unaudited data, read-out: 4-CNAB tmax (range)): 30 min
AUC [8]: 25900 ng·h/mL
Cmax [8]: 20100 ng/mL
Tmax (male, human, plasma, oral, Group/Treatment 3/2, 4-CNAB dose 450, with insulin, unaudited data, read-out: 4-CNAB tmax (range)): 30 min
AUC [9]: 4710 ng·h/mL
Cmax [9]: 5170 ng/mL
Tmax (male, human, plasma, oral, Group/Treatment 3/3, 4-CNAB dose 100, with insulin, unaudited data, read-out: 4-CNAB tmax (range)): 15 min
MRT (male, human, plasma, oral, across treatments, read-out: 4-CNAB MRT, range): 84 to 108 min
half-life (male, human, plasma, oral, combination capsules with insulin, across dose groups, read-out: 4-CNAB mean elimination half-life): 192 to 318 min
AUC(0-inf) [10]: 26700 ± 12200 ng·h/mL
AUC(0-t) [10]: 22200 ± 6760 ng·h/mL
Cmax [10]: 22300 ± 11500 ng/mL
MRT inf [10]: 438 ± 693 min
Vd/F [10]: 220 ± 130 L
half-life (male, human, plasma, po, 400 mg, 4-CNAB alone 400 mg oral, read-out: 4-CNAB t1/2 (converted)): 720 ± 804 min
Tmax (male, human, plasma, po, 400 mg, 4-CNAB alone 400 mg oral, read-out: 4-CNAB tmax, median (range)): 30 min
AUC(0-inf) [11]: 49400 ± 15100 ng·h/mL
AUC(0-t) [11]: 44300 ± 14500 ng·h/mL
Cmax [11]: 38000 ± 15800 ng/mL
MRT inf [11]: 156 ± 31.8 min
Vd/F [11]: 156 ± 82 L
half-life (male, human, plasma, po, 800 mg, 4-CNAB alone 800 mg oral, read-out: 4-CNAB t1/2 (converted)): 354 ± 93 min
Tmax (male, human, plasma, po, 800 mg, 4-CNAB alone 800 mg oral, read-out: 4-CNAB tmax, median (range)): 30 min
AUC(0-inf) [12]: 154000 ± 38100 ng·h/mL
AUC(0-t) [12]: 144000 ± 33800 ng·h/mL
Cmax [12]: 103000 ± 14600 ng/mL
MRT inf [12]: 184 ± 103 min
Vd/F [12]: 81 ± 50 L
half-life (male, human, plasma, po, 1400 mg, 4-CNAB alone 1400 mg oral, read-out: 4-CNAB t1/2 (converted)): 378 ± 246 min
Tmax (male, human, plasma, po, 1400 mg, 4-CNAB alone 1400 mg oral, read-out: 4-CNAB tmax, median (range)): 45 min
